Source: US5658880A, “Sialic acid/fucose based medicaments” (Glycomed Incorporated, priority 1994, dated 1997)

Columns and labels:
E-selectin = assay: ELISA: inhibition of E-selectin-IgG chimera binding to 2,3 sLe^x glycolipid; set-up: species or system human; conditions: for IC50: inhibition of binding to 2,3 sLex glycolipid
Excerpt: (§1) An ELISA assay is preferably used that employs recombinant fusion proteins composed of extracellular portions of the human selectins joined to human immunoglobulin heavy chain CH3, CH2, and hinge regions. See, for example, Walz et al., Science (1990) 250:1132; Aruffo et al., Cell (1991) 67:35; Aruffo et al., Proc. Natl. Acad. Sci. USA. (1992) 89:2292. The assay is well known in the art, and generally consists of the following three steps:
(§2) I. 2,3 sLe^x glycolipid (25 picomole/well) was transferred into microtiter wells as solutions and then evaporated off. Excess, which remained unattached, was washed off with water. The wells were then blocked with 5% BSA at room temperature for an hour and then washed with PBS containing 1 mM calcium.
(§3) II. Preparation of "multivalent" receptor of the Selectin-lgG chimera was carried out by combining the respective chimera (1 μg/mL) with biotin labelled goat F(ab')2 anti-human IgG (Fc specific) and streptavidin-alkaline phosphatase diluted 1:1000 in 1% BSA-PBS (1 mM calcium) and incubating at 37° C. for 15 min. This allowed the soluble multivalent receptor complex to form. III. Potential inhibitors such as the compounds of formula I or II were allowed to react with the soluble receptor at 37° C. for 45 min. This test assumes that optimal binding, between the soluble phase receptor complex and the inhibitor (non natural ligand), would have occurred within this time frame. This solution was then placed in the microtiter wells that were prepared in step I. The plate was incubated at 37° C. for 45 minutes to allow the soluble receptor to bind to its natural ligand. In the presence of a strong inhibitor only a few receptors should be free to bind to the microtiter plate coated with the natural ligand.
(§4) The positive control is the signal produced by the soluble receptor when it is allowed to react with 2,3 sLe^x glycolipid in the microtiter wells in the absence of any inhibitor. This positive control was considered 100% binding. The signal produced by the receptor that had been previously treated with an inhibitor (recorded as O.D.), was divided by the signal produced by the positive control and multiplied by 100 to calculate the % receptor bound to the well in the presence of the inhibitor. The reciprocal of this number is the % inhibition.
as §1, with “was employed” for “is preferably used”, “uses” for “employs”, “USA” for “USA.”
(§5) II. Preparation of "multivalent" receptor of the Selectin-IgG chimera was carried out by combining the respective chimera 1 μg/ml) with biotin labelled goat F(ab')2 anti-human IgG (Fc specific) and streptavidin-alkaline phosphatase diluted 1:1000 in 1% BSA-PBS (1 mM calcium) and incubating at 37° C. for 15 min. This allowed the soluble multivalent receptor complex to form.
(§6) III. Potential inhibitors such as compounds of formula I or II were allowed to react with the soluble receptor at 37° C. for 45 min. This test assumes that optimal binding, between the soluble phase receptor complex and the inhibitor (non natural ligand), would have occurred within this time frame. This solution was then placed in the microtiter wells that were prepared in step I. The plate was incubated at 37° C. for 45 minutes to allow the soluble receptor to bind to its natural ligand. In the presence of a strong inhibitor only a few receptors should be free to bind to the microtiter plate coated with the natural ligand.
(§7) The positive control is the signal produced by the soluble receptor when it is allowed to react with 2,3 sLe^x glycolipid in the microtiter wells in the absence of any inhibitor. This was considered 100% binding. […]

L-selectin = assay: ELISA: inhibition of L-selectin-IgG chimera binding to 2,3 sLe^x glycolipid; set-up: species or system human; conditions: for inhibition of L-selectin binding to 2,3 sLe^x glycolipid: FIG. 5 and FIG. 6, result in words; for IC50: inhibition of binding to 2,3 sLex glycolipid
Excerpt: as §1, §2, §3, §4
as §1, with “was employed” for “is preferably used”, “uses” for “employs”, “USA” for “USA.”
as §5, §6, §7

P-selectin [1] = assay: ELISA: inhibition of P-selectin-IgG chimera binding to 2,3 sLe^x glycolipid; set-up: species or system human; conditions: inhibition of binding to 2,3 sLex glycolipid
Excerpt: as §1, §2, §3, §4
as §1, with “was employed” for “is preferably used”, “uses” for “employs”, “USA” for “USA.”
as §5, §6, §7

P-selectin [2] = assay: Flow cytometric assay: inhibition of P-selectin-IgG binding to HL-60 cells; type: cell-based, human; set-up: unit of the concentration uncertain
Protocol: The interaction of P-selectin and its cellular ligand was studied using a flow cytometric assay (Erbe, D. V. et al., J. Cell Biol. (1993) 120:1227). HL60 cells (maintained in high glucose DME plus 10% Hyclone FBS) were used in this assay. Before staining with P-selectin-IgG the cells were preincubated in Dulbecco's PBS/1% BSA/0.1% sodium azide/1% normal rabbit serum (staining medium) for 30-60 mins on ice. After this initial incubation, 1 μg of P-selectin-IgG was added to 100 μl aliquots of 10^6 cells and incubated for 30-60 mins on ice. The cells were when washed with staining medium and resuspended in 100 μl of staining medium to which was added 2 μl of a phycoerythrin-conjugated F(ab')^2 goat anti-human IgG (Fc specific). The cells were incubated for 15-30 mins on ice, washed twice with staining medium, and resuspended in 0.5 ml of staining medium before flow cytometric analysis on a FACScan (Becton Dickinson & Co., Mountain View, Calif.). To determine that the staining was an interaction of P-selectin with its ligand, the staining was also done in the presence of 10 mM EGTA. To determine the protease sensitivity and the requirement for sialic acid of this interaction, HL-60 cells in D-PBS and 1% BSA were incubated with either trypsin or Arthrobacter or Clostridium sialidases at 37° C. before resuspending in staining medium. To examine the ability of various carbohydrates to inhibit staining, 50 μg/ml fucoidin (Sigma Immunochemicals, St. Louis, Mo.), 50 μg/ml dextran sulfate (Pharmacia Fine Chemicals, Piscataway, N.J.), 10 mg/ml mannose-1-phosphate (Sigma Immunochemicals), or 10 mg/ml mannose-6-phosphate (Sigma Immunochemicals) was added to cells immediately before the addition of the P-selectin chimera. Each carbohydrate was then present until the cells were washed before the addition of the second stage antibody. A potential complication of this FACS assay arose from the use of selectin-IgG chimeras to stain cells which bear human IgG Fc receptors (FcγR; Fanger, M. W., et al., Immunol. Today (1989) 10:92). Adding rabbit IgG (in the form of normal rabbit serum) to the assay medium blocked this binding in most cases.

Structure (SMILES) | IC50 (E-selectin) [mM] | IC50 (L-selectin) [mM] | IC50 (P-selectin [1]) [mM] | inhibition of E-selectin binding to 2,3 sLe^x glycolipid (E-selectin; FIG. 4, result in words) | inhibition of L-selectin binding to 2,3 sLe^x glycolipid (L-selectin) | Inhibition (%) of P-selectin-IgG binding to HL-60 cells (P-selectin [2]; 10 (unit uncertain)) [%] | Inhibition (%) of P-selectin-IgG binding to HL-60 cells (P-selectin [2]; 100 (unit uncertain)) [%] | Inhibition (%) of P-selectin-IgG binding to HL-60 cells (P-selectin [2]; 200 (unit uncertain)) [%]
CC(=O)N[C@H]1[C@H]([C@H](O)[C@H](O)CO)OC(OCCCCCCOC2O[C@@H](C)[C@@H](O)[C@@H](O)[C@@H]2O)(C(=O)O)C[C@@H]1O (stereo partly drawn) [Compound 14, O-Hexamethylene linked α,β-NeuNAc and α,β-L-Fucopyranose] | – | – | – | inhibit E-selectin binding to 2,3 sLe^x glycolipid | inhibit L-selectin binding in a concentration dependent manner | – | – | –
CC(=O)N[C@H]1[C@H]([C@H](O)[C@H](O)CO)OC(OCCCCCCOC2O[C@@H](C)[C@@H](O)[C@@H](O)[C@@H]2O)(C(=O)O)C[C@@H]1O (stereo partly drawn) [Compound 15, O-Hexamethylene linked α,β-NeuNAc and α,β-L-Fucopyranose] | – | – | – | – | blocks L-selectin binding at concentrations lower than 7 and 14 | – | – | –
CC(=O)NC1C(O)CC(OC2C(O)C(CO)OC(OCCOC3OC(C)C(O)C(O)C3O)C2O)(C(=O)O)OC1C(O)C(O)CO [Compound 28, [O-(α-L-fucopyranosyl)-ethyl]3-O-(α-Neu5Ac)-β-D-galactopyranoside] | > 4 | – | – | – | – | – | – | –
CCCOCC(CO[C@@H]1O[C@H](CO)[C@H](O)[C@H](OC(C)C(=O)O)[C@H]1O)O[C@@H]1O[C@@H](C)[C@@H](O)[C@@H](O)[C@@H]1O (stereo partly drawn) [Compound 32, 1-O-(3-O-α-carboxyethyl-β-D-galactopyranosyl)-2-O-(α-L-fucopyranosyl)-3-O-(n-propyl)-propane] | 2 | ≤ 4 | – | – | – | – | – | –
C[C@@H]1O[C@@H](CCOc2ccc3cc(C(=O)O)ccc3c2)[C@@H](O)[C@H](O)[C@@H]1O [Compound 51, 1-Deoxy-1-α-(2-Carboxy-Naphthyl-6-Oxyethyl)-L-Fucose] | < 0.5 | < 1 | < 0.5 | – | – | – | – | –
COc1ccc(-c2c(C(=O)O)oc3cc(OCC[C@@H]4O[C@@H](C)[C@@H](O)[C@@H](O)[C@@H]4O)cc(O)c3c2=O)cc1 [Compound 54, 2-Carboxy-5-Hydroxy-7-(1-Deoxy-1-α-Fucosyl-Ethyleneoxy)-4-Methoxy Isoflavone] | < 0.5 | > 4 | < 0.5 | – | – | – | – | –
C[C@@H]1O[C@@H](CCOc2ccc3cc(OCC[C@@H]4O[C@@H](C)[C@@H](O)[C@@H](O)[C@@H]4O)c(C(=O)O)cc3c2)[C@@H](O)[C@H](O)[C@@H]1O [Compound 57, 3,7-Di-(1-Deoxy-1-α-Fucosyl-Ethyleneoxy)-2-Naphthoic Acid] | > 4 | ~2 | < 0.5 | – | – | – | – | –
C[C@@H]1O[C@@H](CCOc2cc3c(OCC[C@@H]4O[C@@H](C)[C@@H](O)[C@@H](O)[C@@H]4O)cccc3cc2C(=O)O)[C@@H](O)[C@H](O)[C@@H]1O [Compound 58, 3,5-Di-(1-Deoxy-1-α-Fucosyl-Ethyleneoxy)-2-Naphthoic Acid] | > 4 | ~4 | 2 | – | – | – | – | –

More lines, main results first:

IC50 (E-selectin) [mM] | IC50 (L-selectin) [mM] | IC50 (P-selectin [1]) [mM] | Structure (SMILES) | inhibition of E-selectin binding to 2,3 sLe^x glycolipid (E-selectin; FIG. 4, result in words) | inhibition of L-selectin binding to 2,3 sLe^x glycolipid (L-selectin) | Inhibition (%) of P-selectin-IgG binding to HL-60 cells (P-selectin [2]; 10 (unit uncertain)) [%] | Inhibition (%) of P-selectin-IgG binding to HL-60 cells (P-selectin [2]; 100 (unit uncertain)) [%] | Inhibition (%) of P-selectin-IgG binding to HL-60 cells (P-selectin [2]; 200 (unit uncertain)) [%]
> 4 | 4 | > 2 | COC(=O)C(C)c1ccc2cc(OCC[C@@H]3O[C@@H](C)[C@@H](OC(C)=O)[C@@H](OC(C)=O)[C@@H]3OC(C)=O)ccc2c1 (stereo partly drawn) [Compound 60] | – | – | – | – | –
> 4 | > 4 | > 4 | CC(C(=O)OCC1CO1)c1ccc2cc(OCC(O)CO)ccc2c1 (stereo not drawn) [Compound 64] | – | – | – | – | –
< 0.5 | > 2 | < 0.5 | C[C@@H]1O[C@@H](CCOc2ccc(C(=O)O)cc2)[C@@H](O)[C@H](O)[C@@H]1O [Compound 67, 1-Deoxy-1-α-(p-Carboxy-Phenoxyethyl)-L-Fucose] | – | – | – | – | –
~4 | > 4 | < 0.5 | C[C@@H]1O[C@@H](CCOc2ccccc2C(=O)O)[C@@H](O)[C@H](O)[C@@H]1O [Compound 68, 1-Deoxy-1-α-(o-Carboxy-Phenoxyethyl)-L-Fucose] | – | – | – | – | –
> 4 | > 4 | > 4 | C[C@@H]1O[C@@H](CCOc2cccc(C(=O)O)c2)[C@@H](O)[C@H](O)[C@@H]1O [Compound 69, 1-Deoxy-1-α-(m-Carboxy-Phenoxyethyl)-L-Fucose] | – | – | – | – | –
> 4 | > 4 | > 4 | C[C@@H]1O[C@@H](CCc2cccc(C(=O)NC(Cc3ccccc3)C(=O)O)c2)[C@@H](O)[C@H](O)[C@@H]1O (stereo partly drawn) [Compound 74, 1-Deoxy-1-α-(m-Carboxy-Phenylethyl)-L-Fucose-Phenylalanine Amide] | – | – | – | – | –
> 4 | > 4 | 4 | C[C@@H]1O[C@@H](CCc2ccc(C(=O)NC(Cc3ccccc3)C(=O)O)cc2)[C@@H](O)[C@H](O)[C@@H]1O (stereo partly drawn) [Compound 75, 1-Deoxy-1-α-(p-Carboxy-Phenylethyl)-L-Fucose-Phenylalanine Amide] | – | – | – | – | –
> 4 | > 4 | > 4 | C[C@@H]1O[C@@H](CCc2ccccc2C(=O)NC(Cc2ccccc2)C(=O)O)[C@@H](O)[C@H](O)[C@@H]1O (stereo partly drawn) [Compound 76, 1-Deoxy-1-α-(o-Carboxy-Phenylethyl)-L-Fucose-Phenylalanine Amide] | – | – | – | – | –
2 to 3 | 2 to 3 | ~0.5 | C[C@@H]1O[C@@H](OCCCCCCOS(=O)(=O)O)[C@@H](O)[C@H](O)[C@@H]1O [Compound 77, 6-O-sulfo-hexanyl-α-L-fucopyranoside] | – | – | 50 | 50 | 60
